# Where a SMILES comes first, the peptide text is derived from it. The star is where a group is joined. Stearoyl = CCCCCCCCCCCCCCCCCC(=O)*
# Legend:
# MG-63 osteosarcoma cells [1] = test: Cellular uptake of curcumin by bright field and confocal microscopy; format: cell-based, human; details: 20 μM curcumin
# Description: (§1) A confocal laser scanning microscope and a bright field microscope were used for a qualitative study of the cellular uptake of curcumin from curcumin-loaded APNPs. First, 1 mL each of the osteosarcoma cell line and the healthy human osteoblast cell line were seeded on a 24-well plate at a density of 2×10^4 cells/mL. […] The cells were then rinsed with phosphate-buffered saline three times to remove the unabsorbed curcumin. The qualitative uptake of curcumin was then monitored by bright field microscopy. In another study, the nuclei of the cells were tracked by blue fluorescent DAPI staining using confocal microscopy (FIGS. 8A-8F), and the F-actin filaments of cells were stained with red fluorescent Rhodamine 6G. After 10 minutes of fixation by 10% formaldehyde solution and subsequent treatment with a 0.1% Triton X-100 solution for 10 minutes, the cells were stained with DAPI and Atto Rho6G phalloidin and observed using a Zeiss LSM710 laser scanning confocal microscope.
# [2] = Solubility of curcumin in water; format: physicochemical; details: thermodynamic from solid
# [3] = system: healthy human osteoblasts; test: Cellular uptake of curcumin by bright field and confocal microscopy; format: cell-based; details: normal human osteoblast cells, 20 μM curcumin
# Description: as §1
# [4] = background statement; cited from earlier work
# [5] = system: healthy human osteoblasts; test: MTT cytotoxicity assay; details: human osteoblast cell line, highest concentration investigated, 24 hours, serum-free medium
# Description: (§2) MG-63 osteosarcoma (CRL-1427) cells (American Type Culture Collection) were cultured in Eagle's Minimum Essential Medium supplemented with 10% fetal bovine serum and 1% penicillin/streptomycin, while healthy human osteoblasts (C-12760, PromoCell) were cultured in complete growth medium composed of osteoblast basal medium and osteoblast growth medium Supplement Mix. Both cell lines were incubated at 37° C. in a humidified incubator with an atmosphere of 95% […] and 5% CO2. Cells were used at population doubling numbers less than 3. Eagle's Minimum Essential Medium was purchased from the American Type Culture Collection (Manassas, Va., USA), and osteoblast basal medium and osteoblast growth medium Supplemental Mix were purchased from PromoCell (Heidelberg, Germany). Methyl-thiazolyl-tetrazolium (MTT) dye solution was purchased from Promega (Madison, Wis., USA). 4′,6-diamidino-2-phenylindole (DAPI), and Atto Rho6G phalloidin were supplied by Sigma-Aldrich (St Louis, Mo., USA).
# (§3) 100 μL of the osteosarcoma and healthy osteoblast cell suspensions were seeded on a 96-well plate at 2×10^3 cells/well (cell density 6,154 cells/cm^2). […] Cells treated with medium only were used as a […] control. […]
# (§4) The cells were treated for 24 hours. […] Cell viability was expressed as the ratio of cell density in each sample to the cell density in the control sample.
# MG-63 osteosarcoma cells [6] = test: MTT cytotoxicity assay; details: osteosarcoma cell line, highest concentration investigated, 24 hours, serum-free medium
# Description: as §2, §3, §4
# Human dermal fibroblasts = details: 24 hours, MTS
# Description: Human dermal fibroblasts (Lonza, CC-2511) were plated at a density of 10,000 cells/cm^2 in a 96-well plate and maintained in DMEM culture medium supplemented with 10% fetal bovine serum (FBS, Hyclone) and 1% penicillin/streptomycin (P/S, Hyclone). APNPs were added to the culture medium to achieve the indicated final concentration of C18GR7RGDS, and the cells were incubated for 24 hours prior to determination of cell density by MTS assay.
# [7] = Zeta potential measurement (ZS90 Nanosizer); format: physicochemical; details: deionized water
# Description: The zeta potential of the nanoparticles was determined using 1 mL of each sample, each measured for ten preparations in triplicate.
solubility [2] [µg/mL],SMILES,"curcumin uptake, confocal fluorescence (MG-63 osteosarcoma cells [1])","curcumin uptake, bright field microscopy (MG-63 osteosarcoma cells [1]; 2 hours)","curcumin uptake, confocal fluorescence [3]","curcumin uptake, bright field microscopy ([3]; 2 hours)",solubility in water [4],cytotoxicity [5],cytotoxicity (MG-63 osteosarcoma cells [6]),concentration resulting in significant loss of cell viability (reduced density of living cells) (Human dermal fibroblasts) [µM],stability in aqueous solution (indicated by zeta potential) [7]
< 100,"COc1cc(/C=C/C(=O)CC(=O)/C=C/c2ccc(O)c(OC)c2)ccc1O [curcumin, diferuloylmethane]",neither cell line showed detectable fluorescence,did not accumulate in the cytosol,neither cell line showed detectable fluorescence,did not accumulate in the cytosol,insoluble in water,–,–,–,–
–,CCCCCCCCCCCCCCCCCC(=O)NCC(=O)N[C@@H](CCCNC(=N)N)C(=O)N[C@@H](CCCNC(=N)N)C(=O)N[C@@H](CCCNC(=N)N)C(=O)N[C@@H](CCCNC(=N)N)C(=O)N[C@@H](CCCNC(=N)N)C(=O)N[C@@H](CCCNC(=N)N)C(=O)N[C@@H](CCCNC(=N)N)C(=O)N[C@@H](CCCNC(=N)N)C(=O)NCC(=O)N[C@@H](CC(=O)O)C(=O)N[C@@H](CO)C(=O)O [pure C18GR7RGDS APNPs] (Stearoyl-GRRRRRRRRGDS-OH),–,–,–,–,–,minor cytotoxicity,minor cytotoxicity,≥ 40,stable in aqueous solution
